Assay in the first series: not given
By logP is commonly meant a log measure of how a compound divides between an organic and an aqueous phase. `C=CC(CC)OC(=O)Nc1ccc(OCC)c(OCC)c1` (stereo unspecified) returned a logP of 3.42. `C=CCC(C)OC(=O)Nc1ccc(OCC)c(OCC)c1` (stereo unspecified) yielded a logP of 3.37. As to `CCOc1ccc(NC(=O)OC(C)C(Cl)(Cl)Cl)cc1OCC` (stereo unspecified), the logP is 3.96. Molecule `CCOc1ccc(NC(=O)OC(C)COC)cc1OCC` (stereo unspecified) had a logP of 2.56. The molecule `C#CCC(C)OC(=O)Nc1ccc(OCC)c(OCC)c1` (stereo unspecified) came in with a log partition coefficient (logP) of 2.86. On the same count and under the same terms, as for `CCOc1ccc(NC(=O)OCCBr)cc1OCC`, the figure is 2.78; as for `CCOc1ccc(NC(=O)OC(C)(C)C)cc1OCC`, 3.17.

With `CCOc1ccc(NC(=O)OC(C)c2ccccc2)cc1OCC` (stereo unspecified), the logP was 3.56. Take `C#CCCOC(=O)Nc1ccc(OCC)c(OCC)c1`: the lipophilicity (logP) was 2.54. Same read-out and setting: as for `CCOc1ccc(NC(=O)OCCCl)cc1OCC`, the figure is 2.62; as for `CCCCCCC(C)OC(=O)Nc1ccc(OCC)c(OCC)c1` (stereo unspecified), 5.06; as for `CCOc1ccc(NC(=O)OCCF)cc1OCC`, 2.27. As to `C#CC(CC)OC(=O)Nc1ccc(OCC)c(OCC)c1` (stereo unspecified), the logP worked out at 3.07.

As for `CCOc1ccc(NC(=O)OC(C)CF)cc1OCC` (stereo unspecified), the log partition coefficient (logP) turned out to be 2.59. Molecule `CCOc1ccc(NC(=O)OC(C)CCl)cc1OCC` (stereo unspecified) came in with a logP of 2.97.

A further series can be described thus: method code SF-AS, from DOI: 10.1584/jpestics.13.587.
For `C#CC(C)OC(=O)Nc1ccc(OCC)c(OCC)c1` (stereo unspecified), the logP worked out at 2.68.

The values are drawn from the SangsterLogP compilation.
